From US20190022061A1 (priority 2017, published 2019)

Tested on: Diet-induced obesity (DIO) mice
Test: Blood glucose level in DIO mice
Assay type: in vivo, C57BL/6J mice
Description: In this study, RAASUS products (KH103, KHJ and KHGD) were dosed three times a day (T ID) for 99 days. […] On day 63 post dosing, OGTT test were conducted for all of the mice. […] On day −5, day 14, day 28 the non-fast blood was collected to determine the non-fast BG, insulin, TG, HDL-C, LDL-C and TCHO level. On day 42, day 56, day 70, day 84 the fast blood was collected to determine the fast BG, insulin, TG, HDL-C, LDL-C and TCHO level.
Male C57BL/6J mice (Shanghai Laboratory Animal Center, Shanghai, China, 5 weeks) were fed with high fat diet (D12492i, Research Diet, New Brunswick, N.J.) (caloric contribution: protein, 20%; fat, 60%; carbohydrates, 20%) ad lib for 21 weeks for the induction of obesity.
The mice of Group 3, Group 4 were orally dosed with KH103, KHJ respectively three times per day at 9:00, 13:00, 17:00 and free drinl<KH103, KHJ respectively at day and night from Day O to Day 99. […]
The random blood glucose, insulin level were measured using tailing nick once per two weeks on day −5, day 14, day 28.
The fast blood glucose (fast from 17:30 to 8:00 AM) insulin level were measured using tailing nick once per two weeks on day 42, day 56, day 70, day 84. […]
Blood Glucose: Blood glucose was determined using the Glucosemeter (Johnson and Johnson) and the Glucose Test Strips (Johnson and Johnson).

CC(C)c1c(C(=O)Nc2ccccc2)c(-c2ccccc2)c(-c2ccc(F)cc2)n1CC[C@@H](O)C[C@@H](O)CC(=O)O [Atorvastatin]
blood glucose level (DIO mice, po three times a day, compared with the vehicle groups, 12 weeks post dose): significantly decrease | blood sugar level (animal study, diabetics, general statement): lower down
